Data taken from the NIST ThermoML archive (doi:10.1021/je100362p).

Assays:
[1] = refractive index (Na D-line) (dimensionless); xn = mol fraction of the nth substance listed; details: 101 kPa, Liquid, Standard Abbe refractometry
[2] = xn = mol fraction of the nth substance listed; details: 101 kPa, Liquid; for speed of sound: Sing-around technique in a fixed-path interferometer

Cc1cccc(O)c1 [3-methylphenol] + CCCCCCCCCCO
Details	mass density, 298.15 K [kg/m3]	mass density, 303.15 K [kg/m3]	mass density, 308.15 K [kg/m3]	refractive index, 298.15 K	refractive index, 303.15 K	refractive index, 308.15 K	speed of sound, 298.15 K [m/s]	speed of sound, 303.15 K [m/s]	speed of sound, 308.15 K [m/s]
[1], x1 = 0.0818	–	–	–	1.43899	1.43686	1.43464	–	–	–
[1], x1 = 0.1443	–	–	–	1.44269	1.44048	1.43816	–	–	–
[1], x1 = 0.2191	–	–	–	1.44749	1.44514	1.44269	–	–	–
[1], x1 = 0.27	–	–	–	1.45104	1.44858	1.44602	–	–	–
[1], x1 = 0.3513	–	–	–	1.45712	1.45453	1.45183	–	–	–
[1], x1 = 0.4154	–	–	–	1.46234	1.45965	1.45687	–	–	–
[1], x1 = 0.4864	–	–	–	1.46869	1.46584	1.46299	–	–	–
[1], x1 = 0.5447	–	–	–	1.47429	1.47138	1.46848	–	–	–
[1], x1 = 0.6205	–	–	–	1.48226	1.47932	1.47636	–	–	–
[1], x1 = 0.6951	–	–	–	1.49092	1.48799	1.48499	–	–	–
[1], x1 = 0.7472	–	–	–	1.49755	1.49459	1.49161	–	–	–
[1], x1 = 0.8163	–	–	–	1.50709	1.50419	1.50126	–	–	–
[1], x1 = 0.8738	–	–	–	1.51581	1.51296	1.51007	–	–	–
[1], x1 = 0.9325	–	–	–	1.5256	1.52274	1.51982	–	–	–
[1], x1 = 1	–	–	–	1.538	1.535	1.532	–	–	–
[2], x1 = 0.0818	836.406	832.948	829.481	–	–	–	1384.4	1367.3	1350.5
[2], x1 = 0.1443	844.417	840.933	837.44	–	–	–	1388.1	1371	1354.3
[2], x1 = 0.2191	854.601	851.084	847.557	–	–	–	1392.5	1375.5	1358.6
[2], x1 = 0.27	861.935	858.394	854.842	–	–	–	1395.7	1378.5	1361.8
[2], x1 = 0.3513	874.407	870.825	867.235	–	–	–	1400.5	1383.7	1366.8
[2], x1 = 0.4154	884.964	881.35	877.727	–	–	–	1404.8	1388	1371.2
[2], x1 = 0.4864	897.533	893.881	890.219	–	–	–	1410.1	1393.4	1376.6
[2], x1 = 0.5447	908.582	904.899	901.205	–	–	–	1415.1	1398.3	1381.5
[2], x1 = 0.6205	924.111	920.384	916.647	–	–	–	1422.3	1405.6	1388.9
[2], x1 = 0.6951	940.809	937.04	933.259	–	–	–	1430.7	1414	1397.5
[2], x1 = 0.7472	953.452	949.651	945.837	–	–	–	1437.2	1420.7	1404.4
[2], x1 = 0.8163	971.635	967.793	963.936	–	–	–	1447.3	1431.1	1414.8
[2], x1 = 0.8738	988.185	984.309	980.414	–	–	–	1457.3	1441	1424.9
[2], x1 = 0.9325	1006.6	1002.69	998.753	–	–	–	1468.8	1452.8	1436.8
[2], x1 = 1	1030.05	1026.09	1022.12	–	–	–	1480.9	1465.2	1449.6
